Experimental data published in publication PMC10950897, “VCF1 is a p97/VCP cofactor promoting recognition of ubiquitylated p97-UFD1-NPL4 substrates” (Nature Communications, 2024).

Experiments:
[1] = test system: p97 with poly-ubiquitylated mEos3.2; assay: In vitro p97 unfoldase assay (mEos3.2); format: biochemical, human; conditions: p97 100 nM hexamer, VCF1 300 nM, substrate 35 nM, 37 °C
Method: Di-ubiquitin-fused mEos3.2 fluorescent protein (diUb-mEos3.2) and ubiquitylation cascade proteins mUbe1, gpc78-ubc7 fusion and ubiquitin were recombinantly expressed in E. coli and purified as described previously. diUb-mEos3.2 substrate was enzymatically polyubiquitylated as described previously. […] The unfolding activity of p97 was monitored in vitro by measuring the decrease in diUb^n-mEos3.2 fluorescence. For this, diUb^n-mEos3.2 (35 nM), p97 (100 nM hexamer), UFD1-NPL4 (500 nM) and VCF1 (300 nM) were mixed as indicated in Eos assay buffer (50 mM HEPES, pH 7.5; 150 mM KCl; 2 mM MgCl2; 5% glycerol; 1 mM DTT) and pre-warmed to 37 °C for 5 min before ATP (2 mM) was added to start the reaction. Unfolding of red mEos3.2 fluorescence was measured every 15 s in a Varian Cary Eclipse spectrofluorometer (excitation: 500 nm; emission: 520 nm) and normalized to the first value after addition of ATP.

[2] = test system: GFP-VCF1 WT interactome, U2OS cells; assay: GFP IP mass spectrometry of VCF1-interacting proteins, partially denaturing RIPA buffer (+DOX/-DOX); format: binding, human
Method: (§1) U2OS (catalog no. HTB-96) cells were obtained from ATCC. HEK293-EBNA1-6E cells were a kind gift from Yves Durocher (National Research Council Canada, Montreal, Canada). All mammalian cell lines were cultured under standard conditions at 37 °C and 5% CO2 in DMEM (Thermo) supplemented with 10% FBS (v/v) and penicillin-streptomycin (Thermo). Recombination cloning-compatible U2OS cells were generated using the Flp-In T-Rex Core Kit (Thermo) according to the manufacturer’s instructions and maintained under selection using Blasticidin (Invivogen) and Zeocin (Thermo). To generate cell lines stably expressing GFP-VCF1, U2OS Flp-In T-Rex cells (Thermo) were co-transfected with GFP-VCF1 constructs and pOG44 (Thermo) plasmids, followed by selection with Hygromycin (Invitrogen). Single clones were carefully screened for uniform expression of ectopic GFP-VCF1 at low levels and maintained under selection with Blasticidin and Hygromycin. To induce GFP-VCF1 expression, cells were treated with Doxycycline (DOX) (0.5 µg/ml) for 16 h. U2OS cell lines stably expressing Ub(G76V)-GFP or Ub(G76V)-GFP-20AA were described previously. A U2OS cell line stably expressing Ub(G76V)-GFP-NES was generated under G418 (Invivogen) selection. Clones with low baseline GFP expression were visually screened for low basal GFP expression. […]

[3] = test system: GFP-VCF1 WT interactome, U2OS cells; assay: GFP IP mass spectrometry of VCF1-interacting proteins, non-denaturing EBC buffer (+DOX/-DOX); format: binding, human
Method: (§2) U2OS (catalog no. HTB-96) cells were obtained from ATCC. HEK293-EBNA1-6E cells were a kind gift from Yves Durocher (National Research Council Canada, Montreal, Canada). All mammalian cell lines were cultured under standard conditions at 37 °C and 5% CO2 in DMEM (Thermo) supplemented with 10% FBS (v/v) and penicillin-streptomycin (Thermo). Recombination cloning-compatible U2OS cells were generated using the Flp-In T-Rex Core Kit (Thermo) according to the manufacturer’s instructions and maintained under selection using Blasticidin (Invivogen) and Zeocin (Thermo). To generate cell lines stably expressing GFP-VCF1, U2OS Flp-In T-Rex cells (Thermo) were co-transfected with GFP-VCF1 constructs and pOG44 (Thermo) plasmids, followed by selection with Hygromycin (Invitrogen). Single clones were carefully screened for uniform expression of ectopic GFP-VCF1 at low levels and maintained under selection with Blasticidin and Hygromycin. To induce GFP-VCF1 expression, cells were treated with Doxycycline (DOX) (0.5 µg/ml) for 16 h. U2OS cell lines stably expressing Ub(G76V)-GFP or Ub(G76V)-GFP-20AA were described previously. A U2OS cell line stably expressing Ub(G76V)-GFP-NES was generated under G418 (Invivogen) selection. Clones with low baseline GFP expression were visually screened for low basal GFP expression. All cell lines used in this study were regularly tested negative for mycoplasma infection and were not authenticated.
(§3) Immunoblotting was performed as previously described. Immunoprecipitation (IP) of HA-tagged proteins was performed using Anti-HA Affinity matrix (Roche) under denaturing conditions, unless otherwise stated. GFP-trap and […] Fab-trap agarose (Chromotek) were used according to manufacturer’s instructions. Cell lysis was performed using RIPA buffer (140 mM NaCl; 10 mM Tris-HCl, pH 8.0; 0.1% sodium deoxycholate; 1% Triton X-100; 0.1% SDS; 1 mM EDTA; 0.5 mM EGTA) or EBC buffer (50 mM Tris, pH 7.5; 150 mM NaCl; 1 mM EDTA; 0.5% NP-40, 1 mM DTT). IPs were washed in non-denaturing buffer (50 mM Tris-HCl, pH 7.5; 150 mM NaCl; 0.5 mM EDTA). Cell lysis and IP under partially denaturing conditions were performed using denaturing buffer (20 mM Tris-HCl, pH 7.5; 50 mM NaCl; 0.5% sodium deoxycholate; 0.5% NP-40; 0.5% SDS; 1 mM EDTA). All lysis and wash buffers were supplemented with 1 mM fresh PMSF Protease Inhibitor (Thermo), complete EDTA-free protease inhibitor Cocktail Tablets (Roche), 1.25 mM N-ethylmaleimide (Sigma) and 50 µM PR-619 (Calbiochem).
(§4) GFP-Trap agarose (Chromotek) pulldowns were subjected to partial on-bead digestion for peptide elution, by addition of 100 µl of elution buffer (50 mM Tris, pH 7.5; 2 M urea; 2 mM DTT; 20 µg/ml trypsin) and incubation at 37 °C for 30 min. To carry out alkylation, 25 mM CAA was added to the samples, which were then left to digest overnight at room temperature. Digestion was halted by introducing 1% TFA. Purification and desalting of peptides were done using SDB-RPS StageTips. This process required preparing two layers of SDB-RPS with 100 µl of wash buffer (0.2% TFA in H2O), onto which the peptides were loaded. After centrifugation for 5 min at 500 × g, peptides were washed using 150 µl wash buffer, eluted with 50 µl elution buffer (80% ACN; 1% ammonia) and vacuum-dried.
(§5) Liquid chromatography-mass spectrometry (LC-MS) analysis was conducted using an EASY-nLC-1200 system (Thermo Fisher Scientific), coupled with a timsTOF Pro spectrometer and a nano-electrospray ion source (Bruker Daltonik). […]

p97 = assay: GFP IP of GFP-VCF1 alanine mutants from U2OS cells; format: binding, human; conditions: full-length GFP-VCF1, U2OS
Method: as §3

Ub(G76V)-GFP, U2OS cells = assay: QIBC of Ub(G76V)-GFP after siRNA; format: cell-based, human; conditions: siRNA 20 nM, QIBC >10,000 cells
Method: as §1, with “selection.” for “selection. Clones with low baseline GFP expression were visually screened for low basal GFP expression.”
Mammalian cells grown on coverslips were fixed in formalin buffer (VWR) for 15 min at room temperature (RT). […] Quantitative image-based cytometry (QIBC) was performed as described. […]

[4] = test system: p97 (His6-p97 WT and N-domain mutants); assay: Peptide/protein pulldown with purified WT or mutant His6-p97 (VRM, VIM, VBM, p47); format: binding, human; conditions: peptides on StrepTactin agarose (p47: protein), purified WT or mutant His6-p97, RIPA wash
Method: All in vitro binding experiments were performed in EBC or RIPA buffer as indicated. Recombinant Biotin-tagged K48-linked poly-ubiquitin chains (2−7) and K48-linked poly-ubiquitin chains (2−16) were purchased from R&D Systems and Enzo Life Science, respectively. Recombinant proteins were incubated with Strep-Tactin Sepharose (IBA), Glutathione agarose (Gold Biotechnology) or […] Fab-trap agarose (ChromoTek) overnight on an end-over-end rotator at 4 °C, washed six times with EBC or RIPA buffer, and resuspended in 2×Laemmli sample buffer. For p97, VCF1 or p47 pulldowns, antibodies (0.5 µg/sample) were coupled to agarose beads, incubated with recombinant proteins or cell lysates and washed with the indicated buffer. To assess p97-UFD1-NPL4 binding to ubiquitylated proteins in total cell extracts, U2OS cells were lysed in EBC buffer supplemented with protease and phosphatase inhibitors, sonicated and incubated on ice for 10 min. Lysates were cleared by centrifugation for 10 min at 16,100 × g. […]
Peptides were coupled to beads for a minimum of 2 h at 4 °C with rotation, blocked in BSA (New England Biolabs) and washed three times for 1 min, before incubation overnight at 4 °C with whole cell lysate or purified proteins. Beads were then washed three times for 1 min and bound material was eluted in 2×Laemmli sample buffer and analyzed by immunoblotting.

[5] = test system: GFP-VCF1 WT / N167A interactome, U2OS cells; assay: GFP IP mass spectrometry, comparison of VCF1 WT and N167A interactomes (WT/N167A); format: binding, human; conditions: GFP-VCF1 WT / N167A IPs, partially denaturing RIPA buffer
Method: as §2, §3, §4, §5

[6] = test system: p97-UFD1-NPL4 binding to K48-Ub2-7; assay: FLAG IP: p97-UFD1-NPL4 binding to K48-linked ubiquitin chains, purified proteins; format: biochemical, human; conditions: purified proteins, FLAG IP
Method: (§6) All in vitro binding experiments were performed in EBC or RIPA buffer as indicated. Recombinant Biotin-tagged K48-linked poly-ubiquitin chains (2−7) and K48-linked poly-ubiquitin chains (2−16) were purchased from R&D Systems and Enzo Life Science, respectively. Recombinant proteins were incubated with Strep-Tactin Sepharose (IBA), Glutathione agarose (Gold Biotechnology) or […] Fab-trap agarose (ChromoTek) overnight on an end-over-end rotator at 4 °C, washed six times with EBC or RIPA buffer, and resuspended in 2×Laemmli sample buffer. For p97, VCF1 or p47 pulldowns, antibodies (0.5 µg/sample) were coupled to agarose beads, incubated with recombinant proteins or cell lysates and washed with the indicated buffer. To assess p97-UFD1-NPL4 binding to ubiquitylated proteins in total cell extracts, U2OS cells were lysed in EBC buffer supplemented with protease and phosphatase inhibitors, sonicated and incubated on ice for 10 min. Lysates were cleared by centrifugation for 10 min at 16,100 × g. Cell lysate (40 µg) was added to recombinant proteins in EBC buffer, incubated overnight on the rotator with […] Fab-trap agarose (ChromoTek), and beads were washed six times.

[7] = test system: p97-UFD1-NPL4 binding to ubiquitylated proteins; assay: FLAG IP: p97-UFD1-NPL4 binding to ubiquitylated proteins in U2OS cell extracts; format: biochemical, human; conditions: U2OS total cell extracts, EBC buffer
Method: as §6

VCF1-p97 complex: complex of VCF1 and p97
unfolding of poly-ubiquitylated mEos3.2 without UFD1-NPL4 [1]: unable to unfold a poly-ubiquitylated fluorescent model substrate (mEos3.2)

Protein FAM104A
Relative protein level (log2) WT/noDox [2]: 3.522 log2
Relative protein level (log2) WT/noDox [3]: 4.7326 log2

L170: alanine mutant of residue L170 in full-length VCF1
effect of alanine scan on p97 binding (p97): essential for VCF1 binding to p97

H174: alanine mutant of residue H174 in full-length VCF1
effect of alanine scan on p97 binding (p97): essential for VCF1 binding to p97

5’-AGCCAGCUCUUCCAUCUUA-3’ [p47 siRNA]
effect on Ub(G76V)-GFP level (Ub(G76V)-GFP, U2OS cells): had no effect

PTPDLEEKRAKLAEAAERRQKEAAS [VIM, biotinylated VIM peptide of SVIP aa14-39]
dependence of binding on p97 Y143 [4]: required for binding to all three motifs

40S ribosomal protein S29 [RPS29]
Relative protein level (log2) WT/noDox [3]: 2.611 log2

G6PD
Relative protein level (log2) WT/MUT [5]: 4.291 log2

NLTSEELRKRREAYFEKQQQK [VBM, biotinylated VBM peptide of ATXN3 aa275-295]
dependence of binding on p97 Y143 [4]: required for binding to all three motifs

FLNA
Relative protein level (log2) WT/MUT [5]: 3.526 log2

mutation of the VRM: VCF1 with mutated VRM (N167A by Fig. 5c reply)
effect on p97-UFD1-NPL4 binding to K48 ubiquitin chains [6]: abrogated
effect on p97-UFD1-NPL4 binding to ubiquitylated proteins [7]: abrogated

60S ribosomal protein L19 [RPL19]
Relative protein level (log2) WT/noDox [3]: 2.902 log2

Histone H3.1 [HIST1H3A;HIST2H3A;HIST3H3;H3F3A;H3F3B]
Relative protein level (log2) WT/noDox [3]: 5.652 log2

Transitional endoplasmic reticulum ATPase [VCP]
Relative protein level (log2) WT/noDox [2]: 4.192 log2
Relative protein level (log2) WT/MUT [5]: 7.367 log2
Relative protein level (log2) WT/noDox [3]: 3.764 log2

AHNAK
Relative protein level (log2) WT/MUT [5]: 2.811 log2
